Measurements published in US20070155835A1, “USE OF ORTHO-PH[…]/OR DERIVATIVES THEREOF FOR INHIBITING THE ASEXUAL REPRODUCTION OF FUNGI” (Henkel Kommanditgesellschaft auf Aktien (Henkel KGaA), priority 2004, published 2007).

How the values were obtained:
[1] = tested on: Aspergillus niger (DSM1988); assay: Sporulation of Aspergillus niger on wort agar plates containing active substance, assessed visually; type: cell-based
Method: (§1) The surfaces of wort agar plates were each contaminated with 100 μl of a germ suspension (10^3 CFU/ml) of Aspergillus niger (DSM1988). Different quantities of active substance (solutions in ethanol, see table for final concentrations) had previously been added to the agar plates. The plates were incubated for 3 days at 25° C. Sporulation was assessed visually, and the sporulation rate (in %) was determined.
as §1

[2] = tested on: Aspergillus niger (DSM1988); assay: Growth of the test strain on wort agar plates containing active substance; type: cell-based
Method: as §1, with “determined. […] A growth-inhibiting or germ-killing effect occurred only at a concentration of 0.05 wt % OPP.” for “determined.”
as §1

CC(C)=CCCC(C)=CCCC(C)=CCO [Farnesol, reference compound]
Sporulation [%] ([1]; Farnesol concentration 25 μM, comparative experiment): 90%
Sporulation [%] ([1]; Farnesol concentration 62.5 μM, comparative experiment): 75%
Sporulation [%] ([1]; Farnesol concentration 125 μM, comparative experiment): 50%
Sporulation [%] ([1]; Farnesol concentration 250 μM, comparative experiment): 10%
Sporulation [%] ([1]; Farnesol concentration 500 μM, comparative experiment): 0%

Oc1ccccc1-c1ccccc1 [OPP, Ortho-Phenylphenol]
Concentration at which a growth-inhibiting or germ-killing effect occurred ([2]; wort agar, 3 days at 25° C.): 0.05 wt %
Sporulation [%] ([1]; OPP concentration 0.00001 %, wort agar, 3 days at 25° C.): 95%
Sporulation [%] ([1]; OPP concentration 0.00005 %, wort agar, 3 days at 25° C.): 95%
Sporulation [%] ([1]; OPP concentration 0.0001 %, wort agar, 3 days at 25° C.): 85%
Sporulation [%] ([1]; OPP concentration 0.0005 %, wort agar, 3 days at 25° C.): 10%
Sporulation [%] ([1]; OPP concentration 0.001 %, wort agar, 3 days at 25° C.): 0%
Sporulation [%] ([1]; OPP concentration 0.005 %, wort agar, 3 days at 25° C.): 0%
Sporulation [%] ([1]; OPP concentration 0.05 %, wort agar, 3 days at 25° C.): no growth
Sporulation [%] ([1]; OPP concentration 0.1 %, wort agar, 3 days at 25° C.): no growth
Sporulation [%] ([1]; OPP concentration 1.0 %, wort agar, 3 days at 25° C.): no growth
Concentration completely suppressing sporulation relative to growth-inhibiting or germ-killing concentration ([1]; no growth-inhibiting effect at that concentration): fifty times lower
Utilization concentration at which sporulation was completely suppressed ([1]; wort agar, 3 days at 25° C.): 0.001 wt %

Ortho-Phenylphenol/Silicic Acid Ester [OPP/SAE]
Effect of the concentrations used on growth of the test strain ([2]; concentrations of the tables, unless otherwise indicated in the tables): did not prevent growth of the test strain
Sporulation [%] ([1]; OPP/SEA concentration 0.00001 %, wort agar, 3 days at 25° C.): 95%
Sporulation [%] ([1]; OPP/SEA concentration 0.00005 %, wort agar, 3 days at 25° C.): 95%
Sporulation [%] ([1]; OPP/SEA concentration 0.0001 %, wort agar, 3 days at 25° C.): 95%
Sporulation [%] ([1]; OPP/SEA concentration 0.0005 %, wort agar, 3 days at 25° C.): 50%
Sporulation [%] ([1]; OPP/SEA concentration 0.001 %, wort agar, 3 days at 25° C.): 25%
Sporulation [%] ([1]; OPP/SEA concentration 0.005 %, wort agar, 3 days at 25° C.): 0%
Sporulation [%] ([1]; OPP/SEA concentration 0.01 %, wort agar, 3 days at 25° C.): 0%
Utilization concentration at which sporulation was completely suppressed ([1]; wort agar, 3 days at 25° C.): 0.005 wt %
